PubChem BioAssay AID2124 (Sanford-Burnham Center for Chemical Genomics, 2009)
Results filed as inconclusive are left out. Activity calls are given as the source filed them. The rule behind the calls is not given here; tested in MIN6 cells.

Experiment: GFP-wavelength compound autofluorescence in cells – imaging, high-content imaging, artefact control, dose response (AID 2124);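 note: cells exposed to compound for 48 hours before fixing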
Settings: cells, GFP-channel autofluorescence, high-content imaging, at 10 µM; for z-score: stronger effect = higher value

SMILES | z-score | cell count [cells]
O=C(COC(=O)c1cc(S(=O)(=O)N2CCOCC2)ccc1O)NCC1CCCO1 (centres undefined) | -0.33 (inactive) | 3080
Cc1ccc(NC(=O)CCn2cccc2)cc1Cl | -0.33 (inactive) | 3190
COc1ccc(C)cc1NC(=O)CC(NC(C)=O)c1ccccc1 (centres undefined) | -0.33 (inactive) | 3060
O=C(Cn1ncn2c(cc3ccccc32)c1=O)NCc1ccco1 | -0.39 (inactive) | 2610
Cc1cc(/C=N/n2cnnc2)c(C)n1-c1cccc(C(=O)O)c1 | -0.33 (inactive) | 2960
CC1CCN(C(=O)CNS(=O)(=O)c2ccc(Br)s2)CC1 | -0.33 (inactive) | 3290
N#Cc1ccc(-c2ccc(Cl)cc2)nc1SCC(=O)c1cccc(Cl)c1 | -0.27 (inactive) | 3130
COc1cccc(C(=O)Nc2ccccc2C(=O)N2CCCC2)c1 | -0.39 (inactive) | 3120
O=C(/C=C/c1c[nH]c2ccccc12)c1c(O)n(CCc2ccccc2)c(=O)[nH]c1=O | 2.73 | 2920
O=C1S/C(=C/c2ccc(N3CCOCC3)o2)C(=O)N1Cc1c(F)cccc1Cl | 1.3 | 3280
N#C/C(=C\C1=C(N2CCOCC2)C(=C/c2cccc([N+](=O)[O-])c2)/CC1)C(=O)Nc1ccccc1F | -0.32 (inactive) | 2940
O=Cc1sc(Nc2ccccc2)nc1Cl | -0.31 (inactive) | 3150
CC1CC(=O)C2=C(C1)OC(N)=C(C#N)C2c1coc2ccccc2c1=O (centres undefined) | -0.38 (inactive) | 3180
Cc1ccccc1C(=O)N1CCc2ccccc2C1 | -0.39 (inactive) | 3270
C=CCC(c1ccccc1)N(C(C)=O)c1ccco1 (centres undefined) | -0.33 (inactive) | 3430
COC(=O)c1cc2c(-c3ccccc3)cc3ccccn3c-2c1C(=O)OC | -0.23 (inactive) | 2880
O=C(CCl)Nc1cccc2ncccc12 | -0.38 (inactive) | 2060
CC(=O)Nc1sc(/C(C#N)=C\c2cccc(Cl)c2)nc1-c1ccc(C)cc1 | 1.12 | 3000
CN(C)c1ccc(/C=C2\C(=N)N3C(=NC2=O)Sc2cc(S(C)(=O)=O)ccc23)cc1 | -0.29 (inactive) | 2790

SMILES | z-score | cell count [cells]
Cc1cc(C)c2nc(NNC(=O)c3cc(-c4cccs4)nc4ccccc34)sc2c1 | -0.33 (inactive) | 2740
O=C(N/N=C\c1cn(-c2ccccc2)nc1-c1ccccc1)c1ccc(Br)o1 | -0.32 (inactive) | 626
CC(C)N1CCc2c(sc(NC(=O)c3cc4cc([N+](=O)[O-])ccc4s3)c2C(N)=O)C1 | -0.23 (inactive) | 177
Fc1ccc(C2CC(c3ccco3)=NN2c2ccccc2)cc1 (centres undefined) | -0.33 (inactive) | 2910
N=c1oc2c3c4c(cc2cc1C(=O)Nc1ccccc1)CCCN4CCC3 | 0.18 | 3140
Cc1ccc(SCc2cc(-c3ccc(Cl)cc3)no2)cc1 | -0.38 (inactive) | 2860
Cc1[nH]n(-c2ccc([N+](=O)[O-])cc2)c(=O)c1C=NCCN1CCN(C(=O)c2ccccc2F)CC1 | -0.26 (inactive) | 3100
Cc1cc(N2C(=O)c3ccccc3C2=O)n(C)n1 | -0.39 (inactive) | 2960
O=C(/C=C/c1ccco1)NC(=S)Nc1ccccc1N1CCCC1 | -0.39 (inactive) | 2690
S=c1[nH]nc(-c2ccccc2)n1CC1CCCO1 (centres undefined) | -0.33 (inactive) | 3250
Cc1ccc(Nc2nc(Cl)c(C=O)s2)cc1Cl | -0.27 (inactive) | 2840
O=C1/C(=N\S(=O)(=O)c2cccs2)C([n+]2cccc(Cc3ccccc3)c2)=C([O-])c2ccccc21 | -0.31 (inactive) | 307
O=c1ccnc(Nc2ccc3c(c2)OCCO3)[nH]1 | -0.39 (inactive) | 2860
O=C(NC1=NCCS1)C1Cc2ccccc2CN1C(=O)c1ccccc1 (centres undefined) | -0.34 (inactive) | 2680
O=C(Nc1ccon1)c1cccc(S(=O)(=O)N2CCCCC2)c1 | -0.39 (inactive) | 3190
O=C(c1cccs1)c1no[n+]([O-])c1C(=O)c1cccs1 | -0.31 (inactive) | 586
COc1ccccc1N1CCN(C/C(O)=C(\C#N)c2nc(-c3ccccc3)cs2)CC1 | -0.38 (inactive) | 3090
Cc1cc(C)nc(N2CCC(C(=O)Nc3ccc4c(c3)OCCO4)CC2)n1 | -0.33 (inactive) | 2790
NC(=O)c1cc2ccc(O)cc2oc1=NCc1ccccc1 | -0.33 (inactive) | 3140

SMILES | z-score | cell count [cells]
CCCCNC(=O)C1CC(=O)N(C2CCCCC2)C1 (centres undefined) | -0.33 (inactive) | 3070
Cc1ccccc1-c1nnc(-c2ccc(Cl)cc2)o1 | -0.26 (inactive) | 2820
N#C/C(=C/c1ccc(N2CCCCC2)o1)C(=O)Nc1ccc(Cl)cc1 | 3 | 2990
CC(=O)C1=C(C)Nc2ncnn2C1c1ccc(Cl)cc1Cl (centres undefined) | -0.33 (inactive) | 3270
CN(C)c1ccc(/C=N/NC(=O)CN(c2ccccc2Cl)S(C)(=O)=O)cc1Br | -0.39 (inactive) | 3330
CC(C)N1CCc2c(sc(NC(=O)c3ccc(S(=O)(=O)N4CCc5ccccc54)cc3)c2C(N)=O)C1 | 0.77 | 1390
NS(=O)(=O)c1cccc2cccnc12 | -0.33 (inactive) | 3060
N#CCc1nc(CSc2nc3ccccc3s2)cs1 | -0.32 (inactive) | 2980
CCN(CC)c1ccc2cc(-c3nc4ccccc4[nH]3)c(=O)oc2c1 | 5.37 | 1680
CCN1CC=C2C(C#N)=C(N)C(C#N)(C#N)[C@H](c3cccc(OC)c3OC)[C@H]2C1 | 0.28 | 2790
O=[N+]([O-])c1ccc(N/N=C/c2sc(N3CCOCC3)nc2-c2ccccc2)c(S(=O)(=O)Nc2ccccc2Cl)c1 | 0.01 | 144
Cc1ccc(NC(=O)CCl)c(C)c1 | -0.33 (inactive) | 2480
CCOC(=O)CNC(=O)c1cn(C)c(=O)c2cc(OC)c(OC)cc12 | -0.33 (inactive) | 3170
CC(=O)Oc1ccc2c(c1)Oc1cc(OC(C)=O)ccc1C21OC(=O)c2ccccc21 | 4.32 | 3270
CCC(=O)Nc1ccc(C(=O)OCC(=O)c2ccc(C)c([N+](=O)[O-])c2)cc1 | -0.33 (inactive) | 2960
COc1ccc2c(C(=O)CN(C)C3CCCCC3)c[nH]c2c1 | -0.37 (inactive) | 3190
N#C/C(=C/c1ccc(-c2ccccc2)o1)c1nc(-c2cccs2)cs1 | 0.88 | 3200
Cc1nn(-c2ccccc2)c(C)c1NC(=O)CCl | -0.33 (inactive) | 1910
CSc1c(C#N)c(N)nc2sc(C(=O)c3ccc(Cl)c(Cl)c3)c(N)c12 | -0.28 (inactive) | 2770
